Assay results as given in US10774080B2, “Pyrimidine compound as JAK kinase inhibitor” (THERAVANCE BIOPHARMA R&D IP, LLC, priority 2017, dated 2020).

Legend:
[1] = system: IL-22 suppressed Filaggrin expression; assay: Assay 15: recovery of IL-22 suppressed Filaggrin in normal human epidermal keratinocytes; type: cell-based; settings: IL-22 50 ng/mL, 4 days
Experimental: Assay 15: Recovery of IL-22 Suppressed Filaggrin in Normal Human Epidermal Keratinocytes
IL-22 is known to inhibit the expression of terminal differentiation genes, such as Filaggrin. The recovery level of test compound for interleukin-22 (IL-22) suppressed Filaggrin expression was measured in the normal human epidermal keratinocytes (ATCC) using real-time PCR.
Primary epidermal keratinocytes were cultured in a 37° C., 5% CO2 humidified incubator in dermal cell basal medium (ATCC) supplemented with keratinocyte growth kit (ATCC) and 1× Pen/Strep (Life Technologies). Cells were seeded at 5,000 cells/well in BioCoat 96-well plates (Corning) with 100 μl and incubated at 37° C., 5% CO2 for 3 to 4 days till 100% confluency. Then, the medium was removed and replaced with 150 μL of medium containing does-response of test compounds. Compounds were serially diluted in DMSO and then diluted another 1000-fold in media to bring the final DMSO concentration to 0.1%. On day 1 of the assay, cells were incubated with test compounds at 37° C. for 1 h, and followed by the addition of followed by the addition of IL-22 (R&D Systems; final concentration 50 ng/mL) in pre-warmed media (50 μL) for 4 days. […] Fluorescence signals were captured after each cycle. Comparative CT method was used to quantify gene expression with cells without IL-22 and test compounds as baseline control.

[2] = Assay 5: rat pharmacokinetics; type: in vivo, male Sprague Dawley rats; settings: male, Sprague Dawley
Experimental: Assay 5: Rat Pharmacokinetics Assay The objective of this study was to assess the pharmacokinetics of compound (I) in plasma following single oral (PO, n=3) or intravenous (IV, n=2) administration to male Sprague Dawley rats. Three male Sprague Dawley rats were administered a single IV dose of compound (I) (1.0 mg/kg in 5% DMSO+20 mM Citrate buffer pH4) via a jugular vein catheter or a single PO dose of 5 mg/kg via oral gavage (5.0 mg/kg in 1% HPMC with 0.1% Tween80). At 0.25, 0.5, 1, 2, 4, 6, and 24 hours after dose administration blood samples were drawn via jugular vein catheter into EDTA tubes and maintained chilled on ice prior to centrifugation (12,000 rpm, 4 min, 4° C.). Aliquots of plasma were transferred to cluster tubes and stored frozen (−80° C.) prior to bioanalysis. Plasma samples were vortexed prior to transferring a 50 μL aliquot of sample to a 96-well plate and extracted with 200 μL acetonitrile containing an internal standard. Following extraction, samples were centrifuged for 10 min at 3700 RPM (2809×g). The supernatant was transferred to a new 96-well plate and then diluted in 0.2% formic acid in water (3-fold dilution). For all samples, 10 μL was injected onto a Waters Xbridge (C18 30×2.1 mm) column with a flow rate of 0.80 mL/min. Mobile phase A consisted of 0.2% formic acid in water and mobile phase B 0.2% formic acid in acetonitrile. Plasma levels of compound (I) were determined by LC-MS-MS analysis. Standard PK parameters were determined using Phoenix WinNonlin, (Certara Inc.).

[3] = system: BEAS-2B human lung epithelial cells; type: cell-based; settings: 48 h
Experimental: Assay 3: Cytotoxicity Assay A CellTiter-Glo luminescent cell viability/cytotoxicity assay was carried out in BEAS-2B human lung epithelial cells (ATCC) under the normal growth condition. […] On day 1 of the assay, cells were seeded at a 500 cells/well density in white 384-well tissue culture plates (Corning) with 25 μL medium, and were allowed to adhere overnight in the incubator. On day 2 of the assay, 5 μL of medium containing dose-responses of test compounds was added, and incubated at 37° C. for 48 h. 30 μL of CellTiter-Glo detection solution (Promega) was subsequently added, mixed on an orbital shaker for 5 min, and incubated for additional 10 min before being read on the EnVision reader. Luminescence signals were recorded and percent DMSO control values were calculated. For dose-response analysis, percent DMSO control data were plotted vs. compound concentrations to derive dose-response curves by line connecting each data point. […] Results were expressed as the negative logarithm of the CC15 value, pCC15. […] The pCC15 for compound (I) was 5.36.

CCS(=O)(=O)N1[C@@H]2CCC[C@H]1C[C@H](N(C)c1nc(CO)c(F)c(Nc3cc(C)[nH]n3)n1)C2 [Compound (I), (2-(((1R,3s,5S)-9-(ethylsulfonyl)-9-azabicyclo[3.3.1]nonan-3-yl)(methyl)amino)-5-fluoro-6-((5-methyl-1H-pyrazol-3-yl)amino)pyrimidin-4-yl)methanol]
concentration at which recovery of IL-22 suppressed Filaggrin expression was observed [1]: < 1 µM
clearance ([2]; plasma, rat, IV (1 mg/kg)): 59 mL/min/kg
Vd ([2]; plasma, rat, IV (1 mg/kg), read-out: Vdss): 1.1 L/kg
bioavailability ([2]; plasma, rat, PO (5 mg/kg)): 7.7%
AUC(0-t) ([2]; rat plasma, IV (1 mg/kg)): 291 ng·h/mL
Cmax ([2]; rat plasma, IV (1 mg/kg)): 907 ng/mL
half-life ([2]; rat plasma, IV (1 mg/kg), read-out: T½ (converted)): 80.4 min
AUC(0-t) ([2]; rat plasma, PO (5 mg/kg)): 112 ng·h/mL
Cmax ([2]; rat plasma, PO (5 mg/kg)): 77 ng/mL
pCC15 [3]: 5.36
